In US10273226B2, “Pyrazolyl-heteroarylamides as pesticides” (Bayer Animal Health GmbH, priority 2014, dated 2019):

Key:
Assay type in all cases: in vivo
[1] = system: Ctenocephalides felis; assay: Ctenocephalides felis in vitro contact test with adult cat fleas; conditions: application rate 5 μg/cm^2 (500 g/ha); after 48 h; fleas dead or moribund
Method in brief: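 Adult Ctenocephalides felis (5-10 per tube) were held 48 h at room temperature in tubes whose inner walls carried dried active ingredient, e.g. 5 μg/cm^2 from a 900 ppm acetone coating. Percent efficacy reflects fleas motionless or uncoordinated after being knocked to the tube base.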

[2] = system: Boophilus microplus Parkhurst strain, SP-resistant; assay: Boophilus microplus dip test; conditions: application rate 100 ppm, assessed after 7 days
Method in brief: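 Efficacy reflects suppression of fertile egg laying: 0% means all eggs fertile, 100% none, read at 7 days, doubtful eggs kept ~42 days for larval hatch. Treatment was a complete dip of 8–10 engorged adult female ticks (SP-resistant Parkhurst strain) in a water dilution of a DMSO stock.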

[3] = system: Ctenocephalides felis; assay: Ctenocephalides felis oral test; conditions: application rate 100 ppm in citrated cattle blood; after 2 days
Method in brief: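 Percentage mortality recorded at 2 days, where 0% means no fleas killed. Compound dissolved in DMSO and diluted in citrated cattle blood, which roughly 20 unfed adult C. felis imbibe via a parafilm membrane.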

[4] = system: Musca domestica; assay: Musca domestica test; conditions: application rate 100 ppm; adult houseflies; after 2 days
Method in brief: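 Ten adult Musca domestica are exposed to a sugar-soaked sponge carrying the water-diluted DMSO formulation; kill in % is read 2 days later.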

[5] = system: Myzus persicae; assay: Myzus persicae spray test; conditions: application rate 100 g/ha; after 6 days
Method in brief: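 Efficacy, as % of aphids killed (0-100%), was scored 6 days after spraying. Test solutions were made in solvent diluted with water containing 1000 ppm emulsifier. They were sprayed onto Brassica pekinensis leaf discs carrying mixed-stage Myzus persicae.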

[6] = system: Phaedon cochleariae; assay: Phaedon cochleariae spray test; conditions: application rate 100 g/ha; larvae; after 7 days
Method in brief: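 Mortality of Phaedon larvae, in %, was read 7 days after release onto sprayed, dried Brassica pekinensis leaf discs. Test dilutions were prepared in water with 1000 ppm emulsifier. A score of 0% means no larvae died and 100% means all were killed.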

[7] = system: Spodoptera frugiperda; assay: Spodoptera frugiperda spray test; conditions: application rate 100 g/ha; caterpillars; after 7 days
Method in brief: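 Percent kill of armyworm caterpillars was scored 7 days after they were placed on dried, sprayed Zea mays leaf discs. Spray solutions were made by dissolving active ingredient in solvent and diluting with 1000 ppm emulsifier water.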

[8] = system: Anopheles gambiae strain RSPH (homozygot kdr); assay: Anopheles test (ANPHGB surface treatment); conditions: application rate 100 mg/m^2, exposure 30 minutes, 24 hours after contact, read-out: efficacy (mortality in %)
Method: Anopheles Test (ANPHGB Surface Treatment)
(§1) Solvent: acetone+2000 ppm rapeseed oil methyl ester (RME)
(§2) To produce an appropriate active ingredient formulation, the active ingredient is dissolved in the solvent (2 mg/ml). The active ingredient formulation is pipetted onto a glazed tile and, after it has dried off, adult mosquitoes of the species Anopheles gambiae strain RSPH (homozygot kdr) are placed onto the treated tile. The exposure time is 30 minutes.
(§3) 24 hours after contact with the treated surface, mortality in % is determined. 100% means that all the mosquitoes have been killed; 0% means that none of the mosquitoes have been killed.

[9] = system: Aedes aegypti strain MONHEIM; assay: Aedes test (AEDSAE surface treatment); conditions: 24 hours after contact, read-out: efficacy (mortality in %)
Method: Aedes Test (AEDSAE Surface Treatment)
as §1
as §2, with “Aedes aegypti” for “Anopheles gambiae”, “MONHEIM” for “RSPH (homozygot kdr)”
as §3

Cn1nc(C(F)(F)C(F)(F)F)c(C(F)(F)F)c1-n1cc(-c2cccc(NC(=O)c3ccncc3)c2)cn1 [Example 1-001, N-{3-[2′-Methyl-5′-(pentafluoroethyl)-4′-(trifluoromethyl)-2′H-1,3′-bipyrazol-4-yl]-phenyl}isonicotinamide]
efficacy [1]: 100% | efficacy (laying of fertile eggs) [2]: 95% | efficacy (kill in %) [3]: 100% | efficacy (kill in %) [4]: 100% | efficacy [5]: 100% | efficacy [6]: 100% | efficacy [7]: 100% | mortality at 100 mg/m2 [8]: 90 to 100% | mortality at 20 mg/m2 ([9]; application rate 20 mg/m^2, exposure 30 minutes): 90 to 100% | mortality at 100 mg/m2 ([9]; application rate 100 mg/m^2, exposure 30 minutes): 90 to 100%
